Test results published in ChEMBL document CHEMBL4354831, “Novel Cell-Penetrating Peptide Conjugated Proteasome Inhibitors: Anticancer and Antifungal Investigations” (J Med Chem, 2020).
Values after ≈ are worked out from the molar mass of the structure shown. Active and inactive are the calls of the source. The calls are words filed in the database; no cut-off is given here. Peptide text beside a SMILES is read from it.

Assays:
Candida albicans [1] = assay: Antifungal activity against Candida albicans SC5314 after 48 hrs; assay type: functional; details: SC5314, 48 h
Candida albicans [2] = assay: Induction of pore formation in Candida albicans SC5314 membrane at 2xMBEC by SEM analysis; assay type: organism-based; details: Cell membrane
HeLa [3] = assay: Induction of apoptosis in human HeLa cells assessed as apoptotic cells at 2xIC50 after 24 hrs by Alexa flour 488 annexin V/PI- staining based flow cytometric analysis relative to control; assay type: functional
HeLa [4] = assay: Induction of membrane disruption in human HeLa cells assessed as membrane blebbing at 2xIC50 after 24 hrs by SYTO9/PI-staining based inverted fluorescence microscopic analysis; details: Cell membrane
Candida albicans [5] = assay: Potentiation of amphotericin B-induced antifungal activity against Candida albicans SC5314 assessed as fold reduction in amphotericin MIC after 24 to 48 hrs by checker board assay relative to amphotericin alone; assay type: functional
HeLa [6] = assay: Induction of membrane disruption in human HeLa cells assessed as membrane lysis at 2xIC50 after 24 hrs by SYTO9/PI-staining based inverted fluorescence microscopic analysis; details: Cell membrane
HeLa [7] = assay: Induction of ROS generation in human HeLa cells after 24 hrs by DCFH-DA staining based fluorescence analysis; assay type: functional, cell-based
HeLa [8] = assay: Induction of membrane blebbing in human HeLa cells at 2xIC50 after 12 hrs by SEM analysis; assay type: cell-based; details: Cell membrane
HeLa [9] = assay: Induction of apoptosis in human HeLa cells at 2xIC50 after 24 hrs by Annexin-V alexa fluor 488/PI staining based fluorescence microscopic analysis; assay type: functional, cell-based
HeLa [10] = assay: Ratio of IC50 for antiproliferative activity against human HeLa cells to IC50 for antiproliferative activity against human HeLa in presence of cisplatin; assay type: functional
HeLa [11] = assay: Induction of apoptosis in human HeLa cells assessed as DNA damage at 2xIC50 after 24 hrs by Hoechst-33342 staining based inverted fluorescence microscopic analysis; assay type: functional, cell-based
BE(2)-C [12] = assay: Induction of ROS generation in human BE(2)-C cells at 2xIC50 measured up to 24 hrs in presence of ROS quencher, ascorbic acid by DCFH-DA staining based fluorescence analysis; assay type: functional, cell-based
HeLa [13] = assay: Induction of ROS generation in human HeLa cells at 2xIC50 by DCFH-DA staining based fluorescence analysis; assay type: functional, cell-based; details: TDE = time-dependent effect
BE(2)-C [14] = assay: Induction of membrane disruption in human BE(2)-C cells assessed as red fluorescence at 2xIC50 after 24 hrs by SYTO9/PI-staining based inverted fluorescence microscopic analysis; details: Cell membrane
BE(2)-C [15] = assay: Ratio of IC50 for antiproliferative activity against human BE(2)-C cells to IC50 for antiproliferative activity against human BE(2)-C cells in presence of cisplatin; assay type: functional
BE(2)-C [16] = assay: Antiproliferative activity against human BE(2)-C cells assessed as reduction in cell viability after 48 hrs by MTT assay; assay type: functional, cell-based
Candida albicans [17] = assay: Synergistic antifungal activity against Candida albicans SC5314 assessed as FICI in presence of amphotericin B after 24 to 48 hrs by checker board assay; assay type: functional
BE(2)-C [18] = assay: Induction of necrosis in human BE(2)-C cells at 2xIC50 after 24 hrs by Annexin-V alexa fluor 488/PI staining based fluorescence microscopic analysis; assay type: functional, cell-based
BE(2)-C [19] = assay: Induction of pore formation in human BE(2)-C cell membrane at 2xIC50 after 12 hrs by SEM analysis; assay type: functional, cell-based
HeLa [20] = assay: Induction of necrosis in human HeLa cells at 2xIC50 after 24 hrs by Annexin-V alexa fluor 488/PI staining based fluorescence microscopic analysis; assay type: functional, cell-based
BE(2)-C [21] = assay: Induction of apoptosis in human BE(2)-C cells assessed as apoptotic cells at 2xIC50 after 24 hrs by Alexa flour 488 annexin V/PI- staining based flow cytometric analysis relative to control; assay type: functional
Candida albicans [22] = assay: Antifungal activity against Candida albicans SC5314 in presence of amphotericin B after 24 to 48 hrs by checker board assay; assay type: functional
BE(2)-C [23] = assay: Induction of membrane disruption in human BE(2)-C cells assessed as increase in cell debris with damaged membrane at 2xIC50 after 12 hrs by SEM analysis; assay type: cell-based
BE(2)-C [24] = assay: Induction of membrane disruption in human BE(2)-C cells assessed as membrane lysis at 2xIC50 after 24 hrs by SYTO9/PI-staining based inverted fluorescence microscopic analysis; details: Cell membrane
Candida albicans [25] = assay: Ratio of MIC for antifungal activity against Candida albicans SC5314 to MIC for antifungal activity against Candida albicans SC5314 in presence of amphotericin B after 24 to 48 hrs by checker board assay; assay type: functional
Candida albicans [26] = assay: Antibiofilm activity against Candida albicans SC5314 assessed as inhibition of biofilm formation after 24 hrs by XTT-dye based assay; assay type: functional
BE(2)-C [27] = assay: Antiproliferative activity against human BE(2)-C cells assessed as reduction in cell viability in presence of cisplatin after 48 hrs by MTT assay; assay type: functional, cell-based
BE(2)-C [28] = assay: Induction of membrane disruption in human BE(2)-C cells assessed as membrane blebbing at 2xIC50 after 24 hrs by SYTO9/PI-staining based inverted fluorescence microscopic analysis; details: Cell membrane
HeLa [29] = assay: Induction of apoptosis in human HeLa cells assessed as DNA damage at 2xIC50 after 24 hrs by SYTO9/PI-staining based inverted fluorescence microscopic analysis; assay type: functional, cell-based
Candida albicans SC5314 = assay: Inhibition of Candida albicans SC5314 proteasome at antifungal MIC after 12 hrs by fluorescence based analysis
HeLa [30] = assay: Synergistic antiproliferative activity against human HeLa cells assessed as FICI in presence of cisplatin after 48 hrs by MTT assay; assay type: functional
HeLa [31] = assay: Induction of pore formation in human HeLa cell membrane at 2xIC50 after 12 hrs by SEM analysis; assay type: cell-based
HeLa [32] = assay: Induction of membrane disruption in human HeLa cells assessed as red fluorescence at 2xIC50 after 24 hrs by SYTO9/PI-staining based inverted fluorescence microscopic analysis; details: Cell membrane
BE(2)-C [33] = assay: Induction of apoptosis in human BE(2)-C cells assessed as DNA damage at 2xIC50 after 24 hrs by Hoechst-33342 staining based inverted fluorescence microscopic analysis; assay type: functional, cell-based
HeLa [34] = assay: Induction of ROS generation in human HeLa cells at 0.4 to 200 uM after 24 hrs in presence of ROS quencher, ascorbic acid by DCFH-DA staining based fluorescence analysis; assay type: functional, cell-based
HeLa [35] = assay: Induction of apoptosis in human HeLa cells assessed as condensed chromatin at 2xIC50 after 24 hrs by Hoechst-33342 staining based inverted fluorescence microscopic analysis; assay type: functional, cell-based
BE(2)-C [36] = assay: Induction of ROS generation in human BE(2)-C cells at 2xIC50 by DCFH-DA staining based fluorescence analysis; assay type: functional, cell-based; details: TDE = time-dependent effect
HeLa [37] = assay: Induction of apoptosis in human HeLa cells assessed as necrotic cells at 2xIC50 after 24 hrs by Alexa flour 488 annexin V/PI- staining based flow cytometric analysis relative to control; assay type: functional
BE(2)-C [38] = assay: Induction of ROS generation in human BE(2)-C cells at 0.4 to 200 uM after 24 hrs in presence of ROS quencher, ascorbic acid by DCFH-DA staining based fluorescence analysis; assay type: functional, cell-based
HeLa [39] = assay: Induction of ROS generation in human HeLa cells at 2xIC50 measured up to 24 hrs in presence of ROS quencher, ascorbic acid by DCFH-DA staining based fluorescence analysis; assay type: functional, cell-based

Compound | MIC (Candida albicans [1]) [µM] | Activity (Candida albicans [2]) | Activity (HeLa [3]) [%] | Activity (HeLa [4]) | fold change (FC) (Candida albicans [5]) | Activity (HeLa [6]) | Activity (HeLa [7]) | Activity (HeLa [8]) | Activity (HeLa [9]) | Ratio IC50 (HeLa [10]) | Activity (HeLa [11]) | Activity (BE(2)-C [12]) | Activity (HeLa [13]) | Activity (BE(2)-C [14]) | Ratio IC50 (BE(2)-C [15]) | IC50 (BE(2)-C [16]) [µM] | fractional inhibitory concentration index (FICI) (Candida albicans [17]) | Activity (BE(2)-C [18]) | Activity (BE(2)-C [19]) | Activity (HeLa [20]) | also measured
CC(=O)N[C@@H](Cc1ccc(O)cc1)C(=O)NCC(=O)N[C@@H](CCCNC(=N)N)C(=O)N[C@@H](CCCCN)C(=O)N[C@@H](CCCCN)C(=O)N[C@@H](CCCNC(=N)N)C(=O)N[C@@H](CCCNC(=N)N)C(=O)N[C@@H](CCC(N)=O)C(=O)N[C@@H](CCCNC(=N)N)C(=O)N[C@@H](CCCNC(=N)N)C(=O)N[C@@H](CCCNC(=N)N)C(=O)NCC(=O)NCC(=O)NCC(=O)N[C@@H](CC(C)C)C(=O)N[C@@H](CC(C)C)C(=O)N[C@H](C=O)CC(C)C (Ac-YGRKKRRQRRRGGGLLL-aldehyde) | 31.2 (≈ 65.5 µg/mL) | Active | 72.9 | Active | 6 | Active | Dose-dependent effect | Active | Active | 5 | Active | inactive | Tde | Active | 2.5 | 10.3 | 0.36 | Active | Active | Active | Activity (BE(2)-C [21]): 27.2%; MIC (Candida albicans [22]): 6.25 µM; Activity (BE(2)-C [23]): Active; Activity (BE(2)-C [24]): Active; Ratio (Candida albicans [25]): 5; MBIC (Candida albicans [26]): 15.6 µM; IC50 (BE(2)-C [27]): 4.19 µM; Activity (BE(2)-C [28]): Active; Activity (HeLa [29]): Active; inhibition (Candida albicans SC5314): Active; fractional inhibitory concentration index (FICI) (HeLa [30]): 0.34; Activity (HeLa [31]): Active; Activity (HeLa [32]): Active; Activity (BE(2)-C [33]): Active; Activity (HeLa [34]): inactive; Activity (HeLa [35]): Active; Activity (BE(2)-C [36]): Tde; Activity (HeLa [37]): 4.8%; Activity (BE(2)-C [38]): inactive; Activity (HeLa [39]): inactive
CC(=O)N[C@@H](Cc1ccc(O)cc1)C(=O)NCC(=O)N[C@@H](CCCNC(=N)N)C(=O)N[C@@H](CCCCN)C(=O)N[C@@H](CCCCN)C(=O)N[C@@H](CCCNC(=N)N)C(=O)N[C@@H](CCCNC(=N)N)C(=O)N[C@@H](CCC(N)=O)C(=O)N[C@@H](CCCNC(=N)N)C(=O)N[C@@H](CCCNC(=N)N)C(=O)N[C@@H](CCCNC(=N)N)C(=O)NCC(=O)NCC(=O)NCC(=O)N[C@@H](Cc1ccc(O)cc1)C(=O)N[C@@H](CC(C)C)C(=O)N[C@@H](Cc1ccccc1)C(=O)N[C@H](C=O)CC(C)C (Ac-YGRKKRRQRRRGGGYLFL-aldehyde) | 15.6 (≈ 35.8 µg/mL) | Active | 80.5 | Active | 6 | Active | Dose-dependent effect | Active | Active | 4 | Active | inactive | Tde | Active | 4 | 4.7 | 0.35 | Active | Active | Active | Activity (BE(2)-C [21]): 28.3%; MIC (Candida albicans [22]): 3.12 µM; Activity (BE(2)-C [23]): Active; Activity (BE(2)-C [24]): Active; Ratio (Candida albicans [25]): 5; MBIC (Candida albicans [26]): 7.8 µM; IC50 (BE(2)-C [27]): 1.58 µM; Activity (BE(2)-C [28]): Active; Activity (HeLa [29]): Active; inhibition (Candida albicans SC5314): Active; fractional inhibitory concentration index (FICI) (HeLa [30]): 0.33; Activity (HeLa [31]): Active; Activity (HeLa [32]): Active; Activity (BE(2)-C [33]): Active; Activity (HeLa [34]): inactive; Activity (HeLa [35]): Active; Activity (BE(2)-C [36]): Tde; Activity (HeLa [37]): 2.8%; Activity (BE(2)-C [38]): inactive; Activity (HeLa [39]): inactive
